According to patent US9133224B2, “Macrocyclic kinase inhibitors” (OSI Pharmaceuticals, LLC, priority 2010, dated 2015):

Molecular target: T1, GST-tagged full-length FAK enzyme (PTK2) (Homo sapiens, UniProt Q05397)
T1 construct: GST-tagged full-length FAK enzyme (PTK2, Invitrogen PV4085); GST; purchased Invitrogen PV4085
Assay: Biochemical Omnia Assay (FAK)
Conditions: mean IC50; [ATP] = 50uM; read-out: FAK Activity Biochemical OMNIA; [ATP] = 50uM
Protocol: Biochemical Omnia Assay Protocol
The Omnia Assay (Invitrogen) has been optimized for GST-tagged full-length FAK enzyme (PTK2, Invitrogen PV4085).
All compound concentrations were assayed in duplicate. Initial compound dilutions were prepared at 100× concentration in 100% DMSO from a 10 mM stock solution. Compounds were further diluted 1:25 in assay buffer resulting in a 4× concentrated solution.
In running the assay, 5 μL of the above 4× concentrated compound solution (or 4% DMSO for positive controls) was added to the assay plate followed by 5 μL of a solution containing peptide (40 μM) and ATP (200 μM) in assay buffer. The reaction was initiated by the addition of 10 μL of FAK (50 nM) in assay buffer, or assay buffer alone for negative controls. The increase in fluorescence due to peptide phosphorylation was monitored continuously as a function of time using a Spectramax M5 plate reader (Molecular Devices) equipped with SoftMax Pro 5.2 software.
IC50 values were determined from the slopes of the linear progress curves by non-linear curve-fitting using GraphPad Prism 5 (GraphPad Software, Inc.).

T1 sequence (Q05397 whole entry): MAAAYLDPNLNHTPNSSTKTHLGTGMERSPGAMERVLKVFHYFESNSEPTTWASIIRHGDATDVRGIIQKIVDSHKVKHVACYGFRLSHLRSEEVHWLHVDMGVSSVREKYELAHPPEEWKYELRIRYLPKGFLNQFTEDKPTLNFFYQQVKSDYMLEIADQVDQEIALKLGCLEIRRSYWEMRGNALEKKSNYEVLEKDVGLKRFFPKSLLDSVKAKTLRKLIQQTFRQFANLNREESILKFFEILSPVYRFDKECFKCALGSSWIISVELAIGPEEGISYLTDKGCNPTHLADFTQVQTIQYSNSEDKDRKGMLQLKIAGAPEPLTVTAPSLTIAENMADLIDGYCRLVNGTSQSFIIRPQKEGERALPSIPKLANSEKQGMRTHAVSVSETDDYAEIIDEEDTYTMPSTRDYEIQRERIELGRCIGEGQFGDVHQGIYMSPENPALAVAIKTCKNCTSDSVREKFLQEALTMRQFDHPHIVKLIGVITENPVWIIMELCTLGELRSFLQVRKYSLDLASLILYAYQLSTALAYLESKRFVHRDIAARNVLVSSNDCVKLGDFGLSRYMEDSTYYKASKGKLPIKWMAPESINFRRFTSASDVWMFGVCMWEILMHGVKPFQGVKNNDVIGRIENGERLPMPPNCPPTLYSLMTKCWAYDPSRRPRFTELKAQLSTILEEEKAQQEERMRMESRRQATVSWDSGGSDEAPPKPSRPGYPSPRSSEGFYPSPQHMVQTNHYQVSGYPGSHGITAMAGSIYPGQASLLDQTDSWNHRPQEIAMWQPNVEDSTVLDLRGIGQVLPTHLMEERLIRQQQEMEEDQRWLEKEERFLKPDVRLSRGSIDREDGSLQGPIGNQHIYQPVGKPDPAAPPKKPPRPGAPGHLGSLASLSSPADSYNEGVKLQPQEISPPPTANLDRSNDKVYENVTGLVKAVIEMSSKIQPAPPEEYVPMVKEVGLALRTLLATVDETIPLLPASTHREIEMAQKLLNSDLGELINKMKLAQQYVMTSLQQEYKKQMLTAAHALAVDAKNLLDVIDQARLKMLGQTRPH

| Structure (SMILES) | IC50 [µM] |
| --- | --- |
| CCOP1(=O)Cc2ccc(c(Br)c2)Nc2ncc(C(F)(F)F)c(n2)Nc2ccc(nc2C(=O)NC)-c2cnn(c2)CCCO1 (racemic) [Example 32] | < 0.4 |
| CCOP1(=O)Cc2ccc(c(OC)c2)Nc2ncc(C(F)(F)F)c(n2)Nc2ccc(nc2C(=O)NC)-c2cn(nc2C)CCCO1 (racemic) [Example 34] | < 0.4 |
| CCOP1(=O)Cc2ccc(c(OC)c2)Nc2ncc(C(F)(F)F)c(n2)Nc2ccc(nc2C(=O)NC)-c2cnn(c2C)CCCO1 (racemic) [Example 35] | < 0.4 |
| CCCP1(=O)Cc2ccc(c(OC)c2)Nc2ncc(C(F)(F)F)c(n2)Nc2ccc(nc2C(=O)NC)-c2cnn(c2)CCCO1 (racemic) [Example 37] | < 0.4 |
| CCOP1(=O)Cc2ccc(c(OC)c2)Nc2ncc(C(F)(F)F)c(n2)Nc2ccc(nc2C(=O)NC)-c2c(C)nn(c2C)CCCO1 (racemic) [Example 43] | < 0.4 |
| CCOP1(=O)Cc2ccc(c(OC)c2)Nc2ncc(C(F)(F)F)c(n2)Nc2ccc(nc2C(=O)NC)-c2cn(nc2Cl)CCCO1 (racemic) [Example 49] | < 0.4 |
| CCOP1(=O)Cc2ccc(c(OC)c2)Nc2ncc(C(F)(F)F)c(n2)Nc2ccc(nc2C(=O)NC)-c2cnn(c2)C(C)(C)CCO1 (racemic) [Example 50] | < 0.4 |
| CCOP1(=O)Cc2ccc(c(OC)c2)Nc2ncc(C(F)(F)F)c(n2)Nc2ccc(nc2C(=O)NC)-c2cnn(c2C#N)CCCO1 (racemic) [Example 53] | 0.4 to 4 |

Molecular target: T2, FAK (Homo sapiens, UniProt Q05397)
T2 construct: endogenous in cells; host or cells: U87MG glioblastoma cells (ATCC HTB-14)
Assay: Cell-based capture ELISA for inhibition of FAK autophosphorylation [pY397] in U87MG cells
Conditions: 50% (v/v) human plasma, mean IC50, read-out: FAK Activity Mechanistic (U87MG) HP
Protocol: Cell-Based Assays for Inhibition of FAK Autophosphorylation: MiaPaCa2 and U87MG
The ability of compounds to inhibit FAK autophosphorylation was determined in a cell-based capture ELISA assay using U87MG glioblastoma cells (ATCC, Cat # HTB-14) and the FAK [pY397]ELISA kit from Invitrogen (KHO0441). The assay determines the ability of compounds to block endogenous autophosphorylation of FAK stimulated by fibronectin. Cells plated on fibronectin coated 96-well plate were incubated with compounds at various concentrations in the complete growth medium for 2 h. Cell lysates were then prepared and FAK protein was captured onto a FAK antibody-coated 96-well ELISA plate. The phosphotyrosine content of FAK protein was then monitored by quantitation of degree of binding of an antibody that recognizes only the phosphorylated FAK at Y397 within the captured protein.
Reagents Provided in Biosource FAK [pY397]
Cultures of U87MG cells growing in MEM (Earles) containing non-essential amino acids, sodium pyruvate (1 mM), […] (1%) and 10% fetal bovine serum were detached by trypsin-EDTA and suspended in cell growth medium. Cells were then plated onto fibronectin (600 ng/well)-coated 96-well flat bottom plates at 1.7×10^4 cells per well in 60 uL cell growth medium and incubated overnight at 37° C. in a CO2 incubator.
Compound dilutions were prepared from 10 mM DMSO stocks by dilution in cell growth medium, the final concentration of DMSO in the assay being 0.6%. […] The cells were then incubated with compounds at 37° C. for 2 h. The medium was removed by aspiration and cells were lysed by addition of 20 uL of ice-cold cell lysis buffer per well. The plates were kept on ice for 20 min and 50 uL of standard diluent was added to each well. 50 uL of cell lysate from each well was transferred to respective wells in an assay plate and 50 uL of detection antibody was added to all wells except H1-H6 which were no antibody control wells. Capture assay plates were incubated overnight in a cold room.
Following incubation of the cell lysates and detection antibodies in the ELISA plate, the wells were washed 4 times with 120 uL of wash buffer (1×), then 100 uL of diluted HRP conjugated antibody (1:100 dil in diluent) was added to each well, and the plate was incubated at RT for 30 min. The wells were then washed for 4 times with 120 uL of wash buffer (1×) and 100 uL of chromogen was added to each well and incubated in the dark at RT for 5-10 min. 100 uL of stop solution was added to each well and the absorbance measured at 450 nm, 0.1 s.
Comparison of the assay signals obtained in the presence of compound with those of positive and negative controls (cells with no compound and no detection antibody being added), allows degree of inhibition of phospho-FAK [Y397] to be determined over a range of compound concentrations. […] The assay as described above was modified to determine the effect of inclusion of 50% (v/v) mouse or human plasma. In this assay, the compound plate was prepared as 2× concentration in 100 uL of 100% mouse or human plasma, and 60 uL of this was added to 60 uL of culture medium and incubated at 37° C. incubator for 2 h. The rest of the assay was carried out as described above.

T2 sequence (Q05397 whole entry): as above

| Structure (SMILES) | IC50 [µM] |
| --- | --- |
| CCOP1(=O)Cc2ccc(c(Br)c2)Nc2ncc(C(F)(F)F)c(n2)Nc2ccc(nc2C(=O)NC)-c2cnn(c2)CCCO1 (racemic) [Example 32] | < 0.4 |
| CCOP1(=O)Cc2ccc(c(OC)c2)Nc2ncc(C(F)(F)F)c(n2)Nc2ccc(nc2C(=O)NC)-c2cn(nc2C)CCCO1 (racemic) [Example 34] | < 0.4 |
| CCOP1(=O)Cc2ccc(c(OC)c2)Nc2ncc(C(F)(F)F)c(n2)Nc2ccc(nc2C(=O)NC)-c2cnn(c2C)CCCO1 (racemic) [Example 35] | < 0.4 |
| CCCP1(=O)Cc2ccc(c(OC)c2)Nc2ncc(C(F)(F)F)c(n2)Nc2ccc(nc2C(=O)NC)-c2cnn(c2)CCCO1 (racemic) [Example 37] | < 0.4 |
| CCOP1(=O)Cc2ccc(c(OC)c2)Nc2ncc(C(F)(F)F)c(n2)Nc2ccc(nc2C(=O)NC)-c2c(C)nn(c2C)CCCO1 (racemic) [Example 43] | 0.4 to 4 |
| CCOP1(=O)Cc2ccc(c(OC)c2)Nc2ncc(C(F)(F)F)c(n2)Nc2ccc(nc2C(=O)NC)-c2cn(nc2Cl)CCCO1 (racemic) [Example 49] | < 0.4 |
| CCOP1(=O)Cc2ccc(c(OC)c2)Nc2ncc(C(F)(F)F)c(n2)Nc2ccc(nc2C(=O)NC)-c2cnn(c2)C(C)(C)CCO1 (racemic) [Example 50] | < 0.4 |

Same assay, conditions: 50% (v/v) mouse plasma, mean IC50, read-out: FAK Activity Mechanistic (U87MG) MP

| Structure (SMILES) | IC50 [µM] |
| --- | --- |
| CCCP1(=O)Cc2ccc(c(OC)c2)Nc2ncc(C(F)(F)F)c(n2)Nc2ccc(nc2C(=O)NC)-c2cnn(c2)CCCO1 (racemic) [Example 37] | 0.4 to 4 |
| CCOP1(=O)Cc2ccc(c(OC)c2)Nc2ncc(C(F)(F)F)c(n2)Nc2ccc(nc2C(=O)NC)-c2cn(nc2Cl)CCCO1 (racemic) [Example 49] | 0.4 to 4 |

Same assay, conditions: no plasma present, mean IC50, read-out: FAK Activity Mechanistic (U87MG) NP

| Structure (SMILES) | IC50 [µM] |
| --- | --- |
| CCOP1(=O)Cc2ccc(c(Br)c2)Nc2ncc(C(F)(F)F)c(n2)Nc2ccc(nc2C(=O)NC)-c2cnn(c2)CCCO1 (racemic) [Example 32] | < 0.4 |
| CCOP1(=O)Cc2ccc(c(OC)c2)Nc2ncc(C(F)(F)F)c(n2)Nc2ccc(nc2C(=O)NC)-c2cn(nc2C)CCCO1 (racemic) [Example 34] | < 0.4 |
| CCOP1(=O)Cc2ccc(c(OC)c2)Nc2ncc(C(F)(F)F)c(n2)Nc2ccc(nc2C(=O)NC)-c2cnn(c2C)CCCO1 (racemic) [Example 35] | < 0.4 |
| CCCP1(=O)Cc2ccc(c(OC)c2)Nc2ncc(C(F)(F)F)c(n2)Nc2ccc(nc2C(=O)NC)-c2cnn(c2)CCCO1 (racemic) [Example 37] | < 0.4 |
| CCOP1(=O)Cc2ccc(c(OC)c2)Nc2ncc(C(F)(F)F)c(n2)Nc2ccc(nc2C(=O)NC)-c2c(C)nn(c2C)CCCO1 (racemic) [Example 43] | < 0.4 |
| CCOP1(=O)Cc2ccc(c(OC)c2)Nc2ncc(C(F)(F)F)c(n2)Nc2ccc(nc2C(=O)NC)-c2cn(nc2Cl)CCCO1 (racemic) [Example 49] | < 0.4 |
| CCOP1(=O)Cc2ccc(c(OC)c2)Nc2ncc(C(F)(F)F)c(n2)Nc2ccc(nc2C(=O)NC)-c2cnn(c2)C(C)(C)CCO1 (racemic) [Example 50] | < 0.4 |
| CCOP1(=O)Cc2ccc(c(OC)c2)Nc2ncc(C(F)(F)F)c(n2)Nc2ccc(nc2C(=O)NC)-c2cnn(c2C#N)CCCO1 (racemic) [Example 53] | > 4 |
